The record followed here is US20210300940A1 (Merck Patent GmbH, priority 2018, published 2021).

A value given as a limit tells only on which side of the number the result lay.

One assay concerns the target T1, TLR7 (Homo sapiens, UniProt Q9NYK1).
T1 construct: expressed in transfected cells; host or cells: HEK/293 cells carrying TLR7 and an NF-kB luciferase reporter
T1 sequence (Q9NYK1 27-1049): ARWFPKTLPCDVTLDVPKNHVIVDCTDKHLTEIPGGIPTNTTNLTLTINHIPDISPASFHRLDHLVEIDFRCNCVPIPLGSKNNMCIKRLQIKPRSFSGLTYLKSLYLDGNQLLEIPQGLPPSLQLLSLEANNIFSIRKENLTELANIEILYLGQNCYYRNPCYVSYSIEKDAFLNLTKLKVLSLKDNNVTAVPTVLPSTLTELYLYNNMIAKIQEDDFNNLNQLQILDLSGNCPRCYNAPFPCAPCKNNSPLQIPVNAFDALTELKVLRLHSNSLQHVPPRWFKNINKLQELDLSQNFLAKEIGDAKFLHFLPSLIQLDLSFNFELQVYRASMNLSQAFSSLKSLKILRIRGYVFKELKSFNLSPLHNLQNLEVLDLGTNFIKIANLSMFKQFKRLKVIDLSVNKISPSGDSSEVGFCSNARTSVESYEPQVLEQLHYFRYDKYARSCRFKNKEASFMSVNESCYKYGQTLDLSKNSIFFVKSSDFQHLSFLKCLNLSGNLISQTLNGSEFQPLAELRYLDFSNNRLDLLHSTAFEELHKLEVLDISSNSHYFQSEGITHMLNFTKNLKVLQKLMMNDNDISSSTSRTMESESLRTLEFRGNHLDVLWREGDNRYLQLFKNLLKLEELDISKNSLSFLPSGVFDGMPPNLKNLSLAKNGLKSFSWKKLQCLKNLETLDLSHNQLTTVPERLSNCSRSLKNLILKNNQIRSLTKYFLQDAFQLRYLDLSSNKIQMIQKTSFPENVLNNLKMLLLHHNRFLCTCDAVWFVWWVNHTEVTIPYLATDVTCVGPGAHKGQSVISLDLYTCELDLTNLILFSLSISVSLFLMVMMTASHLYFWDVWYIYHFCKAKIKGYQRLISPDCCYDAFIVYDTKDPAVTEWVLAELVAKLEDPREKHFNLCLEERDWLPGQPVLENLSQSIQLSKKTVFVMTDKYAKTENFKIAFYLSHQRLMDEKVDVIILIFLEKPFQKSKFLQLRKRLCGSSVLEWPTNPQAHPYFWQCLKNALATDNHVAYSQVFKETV
Description: HEK/293 TLR7 Cell Assay. The assay is classed as cell-based. Particulars: TLR7/NFKb HEK cells, R848 agonist 10 uM final concentration, Steady-Glo readout; read-out: TLR7 potency. In a few lines: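 TLR7/NF-κB reporter HEK293 cells, 5000/well, cultured 24 h, then preincubated 30 min with compound before R848 agonist (10 uM final). After 5 h stimulation, Steady-Glo luciferase luminescence read.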

The target in a further assay is T2, TLR8 (Homo sapiens, UniProt Q9NR97).
T2 construct: expressed in transfected cells; host or cells: HEK/293 reporter cells (NF-kB luciferase)
T2 sequence (Q9NR97 27-1041): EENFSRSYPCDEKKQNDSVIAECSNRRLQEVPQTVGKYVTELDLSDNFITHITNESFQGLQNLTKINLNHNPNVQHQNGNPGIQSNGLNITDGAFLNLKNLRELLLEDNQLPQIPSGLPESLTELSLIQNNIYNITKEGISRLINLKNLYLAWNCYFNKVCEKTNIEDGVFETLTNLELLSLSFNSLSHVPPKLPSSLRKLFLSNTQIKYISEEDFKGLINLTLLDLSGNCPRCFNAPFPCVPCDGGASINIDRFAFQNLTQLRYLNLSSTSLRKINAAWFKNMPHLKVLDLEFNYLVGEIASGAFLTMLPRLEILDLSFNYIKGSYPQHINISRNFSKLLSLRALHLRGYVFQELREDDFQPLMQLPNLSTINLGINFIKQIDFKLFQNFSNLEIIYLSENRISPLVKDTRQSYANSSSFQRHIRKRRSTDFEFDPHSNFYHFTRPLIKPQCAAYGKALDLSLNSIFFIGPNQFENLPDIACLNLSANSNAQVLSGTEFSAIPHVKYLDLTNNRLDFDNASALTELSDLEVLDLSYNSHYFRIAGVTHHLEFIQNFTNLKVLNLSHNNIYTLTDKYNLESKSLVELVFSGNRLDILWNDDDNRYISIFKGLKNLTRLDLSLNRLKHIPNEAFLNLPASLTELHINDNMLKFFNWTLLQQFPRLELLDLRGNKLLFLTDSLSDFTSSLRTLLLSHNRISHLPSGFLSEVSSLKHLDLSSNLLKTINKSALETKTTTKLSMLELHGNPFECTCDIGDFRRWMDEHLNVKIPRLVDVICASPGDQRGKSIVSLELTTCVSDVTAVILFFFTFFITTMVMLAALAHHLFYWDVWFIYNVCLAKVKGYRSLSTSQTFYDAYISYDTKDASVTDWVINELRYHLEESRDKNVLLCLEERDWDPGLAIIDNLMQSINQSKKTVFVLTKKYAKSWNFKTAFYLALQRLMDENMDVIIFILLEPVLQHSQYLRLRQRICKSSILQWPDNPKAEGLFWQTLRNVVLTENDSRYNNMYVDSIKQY
The experiment in a line: HEK/293 TLR8 Cell Assay. The assay is classed as cell-based. Particulars: HEK cells, R848 agonist 30 uM final concentration, Steady-Glo readout; read-out: TLR8 potency.

As for `C[C@@H]1CN(c2cnc(C#N)c3ncccc23)C[C@H](CN2CCN(CCO)CC2)O1` [Example 372, 5-{(2S,6R)-2-[4-(2-Hydroxy-ethyl)-piperazin-1-ylmethyl]-6-methyl-morpholin-4-yl}-[1,7]naphthyridine-8-carbonitrile], the IC50 on TLR7 was 75 to 150 nM; on TLR8 it was under 75 nM.
For `N#Cc1ccc(N2C[C@@H](CN3CC(O)C3)O[C@@H](C(F)(F)F)C2)c2nccnc12` (single isomer, unassigned) [Example 362] the same measures were under 75 nM and over 150 nM.
For `C[C@H]1C[C@@H](NC(=O)CCn2ccnc2)CN(c2ccc(C#N)c3nccnc23)C1` [Example 193, N-[(3R,5S)-1-(8-Cyano-quinoxalin-5-yl)-5-methyl-piperidin-3-yl]-3-imidazol-1-yl-propionamide] the same measures were under 75 nM and under 75 nM.
Regarding `CN1CCC(F)(CNC(=O)[C@@H]2CN(c3ccc(C#N)c4nccnc34)C[C@H](C(F)(F)F)O2)CC1` (single isomer, unassigned) [Example 360], the IC50 on TLR7 and at TLR8 was under 75 nM throughout.
On to `C[C@@H]1CN(c2ccc(C#N)c3nccnc23)C[C@H](C(=O)NC[C@@H](O)C(F)(F)F)O1` [Example 250, (2R,6R)-4-(8-Cyano-quinoxalin-5-yl)-6-methyl-morpholine-2-carboxylic acid ((R)-3,3,3-trifluoro-2-hydroxy-propyl)-amide], for which the IC50 at TLR7 and at TLR8 was under 75 nM in each case.
In the case of `COCC(O)CNC(=O)[C@H]1CN(c2ccc(C#N)c3nccnc23)C[C@@H](C)O1` (stereo partly drawn) [Example 252, (2R,6R)-4-(8-Cyano-quinoxalin-5-yl)-6-methyl-morpholine-2-carboxylic acid (2-hydroxy-3-methoxy-propyl)-amide], the figures for the IC50 on TLR7 and at TLR8 were 75 to 150 nM and under 75 nM, respectively.
For `CCOc1ncc(N2C[C@H](N)C[C@H](C(F)(F)F)C2)c2cccnc12` [Example 10, (3R,5S)-1-(8-Ethoxy-[1,7]naphthyridin-5-yl)-5-trifluoromethyl-piperidin-3-ylamine], the IC50 at TLR7 and on TLR8 was over 150 nM throughout.
Consider `C[C@@H](C(=O)N[C@@H]1C[C@H](C(F)(F)F)CN(c2ccc(C(F)(F)F)c3ncccc23)C1)N1CCN(C)CC1` (single isomer, unassigned) [Example 95], for which the IC50 at TLR7 and on TLR8 was under 75 nM throughout.
For the molecule `C[C@H]1C[C@@H](NCCNS(C)(=O)=O)CN(c2ccc(C(F)(F)F)c3ncccc23)C1` [Example 20, N-(2-{[(3R,5S)-5-methyl-1-[8-(trifluoromethyl)quinolin-5-yl]piperidin-3-yl]amino}ethyl)methanesulfonamide], the IC50 on TLR7 and at TLR8 was under 75 nM each time.
As to `N#Cc1ccc(N2C[C@@H](C(=O)NC[C@H](O)CO)O[C@@H](C(F)(F)F)C2)c2nccnc12` (single isomer, unassigned) [Example 281], the IC50 on TLR7 and on TLR8 was over 150 nM throughout.
On to `N#Cc1ccc(N2C[C@@H](C(F)(F)F)O[C@@H](C(=O)N[C@H]3CNC[C@H]3F)C2)c2nccnc12` (single isomer, unassigned) [Example 303], for which the IC50 on TLR7 and at TLR8 was under 75 nM in each case.
As to `C[C@@H]1CN(c2ccc(C#N)c3nccnc23)C[C@H](CN2CC[C@@H](O)C2)O1` [Example 221, 8-[(2S,6R)-2-((R)-3-Hydroxy-pyrrolidin-1-ylmethyl)-6-methyl-morpholin-4-yl]-quinoxaline-5-carbonitrile], the IC50 at TLR7 was under 75 nM; at TLR8 it was over 150 nM.
On the same counts, the results for `O=C(N[C@@H]1C[C@H](C(F)(F)F)CN(c2ccc(C(F)(F)F)c3ncccc23)C1)[C@@H]1CCCN1` [Example 123, (2S)—N-[(3R,5S)-5-(trifluoromethyl)-1-[8-(trifluoromethyl)quinolin-5-yl]piperidin-3-yl]pyrrolidine-2-carboxamide] are 75 to 150 nM and under 75 nM.
For `N#Cc1ccc(N2C[C@H](NC(=O)[C@@H]3CCCN3)C[C@H](C(F)(F)F)C2)c2nccnc12` [Example 124, (2S)—N-[(3R,5S)-1-(8-cyanoquinoxalin-5-yl)-5-(trifluoromethyl)piperidin-3-yl]pyrrolidine-2-carboxamide] the same measures were under 75 nM and under 75 nM.
On the same counts, the results for `Cc1ncc(N2C[C@H](NC(=O)C(F)C3CCNC3)C[C@H](C(F)(F)F)C2)c2cccnc12` (stereo partly drawn) [Example 137, 2-Fluoro-N-[(3R,5S)-1-(8-methyl-[1,7]naphthyridin-5-yl)-5-trifluoromethyl-piperidin-3-yl]-2-pyrrolidin-3-yl-acetamide] are under 75 nM and under 75 nM.
Consider `CN(C)CCC(=O)N[C@@H]1C[C@H](C(F)(F)F)CN(c2ccc(C(F)(F)F)c3ncccc23)C1` [Example 64, 3-(dimethylamino)-N-[(3R,5S)-5-(trifluoromethyl)-1-[8-(trifluoromethyl)quinolin-5-yl]piperidin-3-yl]propanamide], for which the IC50 on TLR7 and at TLR8 was under 75 nM throughout.
For `CCN(CC)CCO[C@@H]1C[C@H](C)CN(c2ccc(C(F)(F)F)c3ncccc23)C1` (relative stereo) [Example 4, diethyl(2-[[cis-5-methyl-1-[8-(trifluoromethyl)quinolin-5-yl]piperidin-3-yl]oxy]ethyl)amine], the IC50 is over 150 nM on TLR7 and under 75 nM on TLR8.
On the same counts, the results for `C[C@H]1C[C@@H](n2cccn2)CN(c2ccc(C(F)(F)F)c3nccnc23)C1` (racemic) [Example 155, 5-[cis-3-methyl-5-(1H-pyrazol-1-yl)piperidin-1-yl]-8-(trifluoromethyl)quinoxaline] are over 150 nM and over 150 nM.
For the molecule `C[C@@H]1CN(c2cnc(C#N)c3ncccc23)C[C@H](CNC(=O)[C@@]2(F)CCNC2)O1` (single isomer, unassigned) [Example 336], the IC50 on TLR7 and at TLR8 was under 75 nM in each case.
`C[C@@H]1CN(c2cnc(C#N)c3ncccc23)C[C@H](CNC(=O)C2(F)CCCNC2)O1` (stereo partly drawn) [Example 333, N-{[(2S,6R)-4-(8-cyano-1,7-naphthyridin-5-yl)-6-methylmorpholin-2-yl]methyl}-3-fluoropiperidine-3-carboxamide]: the IC50 on TLR7 was 75 to 150 nM; at TLR8, under 75 nM.
As for `C[C@H]1C[C@@H](NC(=O)CCC2CCN(C)CC2)CN(c2cnc(C#N)c3nccnc23)C1` [Example 189, N-[(3R,5S)-1-(5-Cyano-pyrido[3,4-b]pyrazin-8-yl)-5-methyl-piperidin-3-yl]-3-(1-methyl-piperidin-4-yl)-propionamide], the values for the IC50 on TLR7 and on TLR8 were 75 to 150 nM and under 75 nM, respectively.
